In BindingDB's records for doi:10.1021/jm800797n (University of Tartu, 2009):

Legend:
[1] = molecular target: cAMP-dependent protein kinase catalytic subunit alpha (Bos taurus) (UniProt P00517); assay: The assay is based on the kinase-bound labeled fluorescent probe can be displaced by competitive inhibitors, which can be registered by measurement of the resulting change in fluorescence properties of the solution. The binding curves were fitted using GraphPad Prism version 4.03 using sigmoidal dose-respons; conditions: pH 7.5
[2] = molecular target: cAMP-dependent protein kinase catalytic subunit alpha (Bos taurus) (UniProt P00517); assay: The IC50 values of the inhibitors corresponding to the concentration of the inhibitor decreasing the enzyme activity 50% were measured using fluorescent-labeled substrate. The phosphorylation reaction was initiated by the addition of ATP. At fixed time points, the reaction was analyzed by normal phase TLC. The visualization and quantification
[3] = molecular target: RAC-gamma serine/threonine-protein kinase (Homo sapiens, UniProt Q9Y243); assay: Fluorometric TLC Kinase Assay
Sequence of RAC-gamma serine/threonine-protein kinase (Q9Y243 whole entry): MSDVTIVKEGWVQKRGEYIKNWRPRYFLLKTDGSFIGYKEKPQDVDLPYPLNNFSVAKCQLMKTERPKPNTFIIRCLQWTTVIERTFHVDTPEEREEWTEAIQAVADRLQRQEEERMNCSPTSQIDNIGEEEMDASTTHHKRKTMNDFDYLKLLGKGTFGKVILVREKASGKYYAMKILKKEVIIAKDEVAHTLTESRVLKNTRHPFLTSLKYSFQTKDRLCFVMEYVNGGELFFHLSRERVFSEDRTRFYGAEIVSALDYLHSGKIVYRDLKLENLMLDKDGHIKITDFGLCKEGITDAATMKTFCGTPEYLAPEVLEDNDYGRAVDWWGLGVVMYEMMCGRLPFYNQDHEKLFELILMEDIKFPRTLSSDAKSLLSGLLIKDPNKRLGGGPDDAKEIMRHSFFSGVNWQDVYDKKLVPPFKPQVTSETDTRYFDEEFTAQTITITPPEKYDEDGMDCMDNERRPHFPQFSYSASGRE

Row | IC50 [2] [nM] | IC50 [3] [nM] | SMILES | Kd [1] [nM]
1 |  |  | O=S(=O)(NCCNC/C=C/c1ccc(Br)cc1)c1cccc2cnccc12 | 23
2 |  | 2040 | C[C@@H](NC(=O)CCCCCNC(=O)[C@@H]1C[C@@H](O)[C@H](n2cnc3c(N)ncnc32)C1)C(=O)NCCCCCC(=O)N[C@H](CCCNC(=N)N)C(=O)N[C@H](CCCNC(=N)N)C(N)=O [6-{[(1S,3R,4R)-3-(6-amino-9H-purin-9-yl)-4-hydroxycyclopentyl]formamido}-N-[(1R)-1-[(5-{[(1R)-4-carbamimidamido-1-{[(1R)-4-carbamimidamido-1-carbamoylbutyl]carbamoyl}butyl]carbamoyl}pentyl)carbamoyl]ethyl]hexanamide] | 
3 | 2.41 |  | NC(=O)[C@@H](CCCN=C(N)N)NC(=O)[C@@H](CCCN=C(N)N)NC(=O)[C@@H](CCCN=C(N)N)NC(=O)[C@@H](CCCN=C(N)N)NC(=O)[C@@H](CCCN=C(N)N)NC(=O)[C@@H](CCCN=C(N)N)NC(=O)CCCCCNC(=O)[C@@H]1C[C@@H](O)[C@H](n2cnc3c(N)ncnc32)C1 [6-{[(1S,3R,4R)-3-(6-amino-9H-purin-9-yl)-4-hydroxycyclopentyl]formamido}-N-[(1R)-4-carbamimidamido-1-{[(1R)-4-carbamimidamido-1-{[(1R)-4-carbamimidamido-1-{[(1R)-4-carbamimidamido-1-{[(1R)-4-carbamimidamido-1-{[(1R)-4-carbamimidamido-1-carbamoylbutyl]carbamoyl}butyl]carbamoyl}butyl]carbamoyl}butyl]carbamoyl}butyl]carbamoyl}butyl]hexanamide] | 
4 |  |  | NC(=O)[C@H](Cc1ccc(C(=O)c2ccccc2)cc1)NC(=O)CCCCCNC(=O)[C@H]1O[C@@H](n2cnc3c(N)ncnc32)[C@H](O)[C@@H]1O [6-{[(2S,3S,4R,5R)-5-(6-amino-9H-purin-9-yl)-3,4-dihydroxyoxolan-2-yl]formamido}-N-[(1S)-2-(4-benzoylphenyl)-1-carbamoylethyl]hexanamide] | > 100000
5 |  |  | N=C(N)NCCC[C@@H](NC(=O)[C@@H](CCCNC(=N)N)NC(=O)[C@@H](CCCNC(=N)N)NC(=O)[C@@H](CCCNC(=N)N)NC(=O)[C@@H](CCCNC(=N)N)NC(=O)[C@@H](CCCNC(=N)N)NC(=O)CCCCCNC(=O)[C@@H](CCCCN)NC(=O)CCCCCNC(=O)[C@H]1O[C@@H](n2cnc3c(N)ncnc32)[C@H](O)[C@@H]1O)C(N)=O [(2R)-6-amino-2-(6-{[(2S,3S,4R,5R)-5-(6-amino-9H-purin-9-yl)-3,4-dihydroxyoxolan-2-yl]formamido}hexanamido)-N-(5-{[(1R)-4-carbamimidamido-1-{[(1R)-4-carbamimidamido-1-{[(1R)-4-carbamimidamido-1-{[(1R)-4-carbamimidamido-1-{[(1R)-4-carbamimidamido-1-{[(1R)-4-carbamimidamido-1-carbamoylbutyl]carbamoyl}butyl]carbamoyl}butyl]carbamoyl}butyl]carbamoyl}butyl]carbamoyl}butyl]carbamoyl}pentyl)hexanamide] | < 0.5
6 | 5.3 | 30.7 | NC(=O)[C@@H](CCCN=C(N)N)NC(=O)[C@@H](CCCN=C(N)N)NC(=O)[C@@H](CCCN=C(N)N)NC(=O)[C@@H](CCCN=C(N)N)NC(=O)[C@@H](CCCN=C(N)N)NC(=O)[C@@H](CCCN=C(N)N)NC(=O)CCCCCNCCNS(=O)(=O)c1cccc2cnccc12 [N-[(1R)-4-carbamimidamido-1-{[(1R)-4-carbamimidamido-1-{[(1R)-4-carbamimidamido-1-{[(1R)-4-carbamimidamido-1-{[(1R)-4-carbamimidamido-1-{[(1R)-4-carbamimidamido-1-carbamoylbutyl]carbamoyl}butyl]carbamoyl}butyl]carbamoyl}butyl]carbamoyl}butyl]carbamoyl}butyl]-6-{[2-(isoquinoline-5-sulfonamido)ethyl]amino}hexanamide] | 

Row | SMILES | IC50 [2] [nM] | IC50 [3] [nM] | Kd [1] [nM]
7 | N=C(N)NCCC[C@@H](NC(=O)[C@@H](CCCNC(=N)N)NC(=O)[C@@H](CCCNC(=N)N)NC(=O)[C@@H](CCCNC(=N)N)NC(=O)[C@@H](CCCNC(=N)N)NC(=O)[C@@H](CCCNC(=N)N)NC(=O)CCCCCNC(=O)[C@H]1O[C@@H](n2cnc3c(N)ncnc32)[C@H](O)[C@@H]1O)C(N)=O | 8.3 |  | 
